The results in this text go back to PubChem BioAssay AID2060494 (Molecular Pharmacology Branch, DTP, NCI, 2025).

For the assay, the system named is 435261-313-R-J1-PDC complex spheroid viability. The assay can be described thus: Anticancer human tumor 435261-313-R-J1-PDC patient-derived colon adenocarcinoma cell line growth inhibition [GQUAD]. To be noted: for viability, T/C: stronger effect = lower value. The text has this:
DNA G-quadruplex Stabilizer Agents in Combinations in Complex Spheroids
A high-throughput screen of multi-cell type tumor spheroids was designed to identify active combinations of DNA G-quadruplex stabilizer agents and targeted small molecules. Complex spheroids include a stromal component modeled by human endothelial cells (HUVEC) and fibroblasts modeled by human mesenchymal stem cells (MSCs). The concentration ranges selected for each drug and investigational agent were based upon clinically achievable concentrations if the clinical Cmax of the agent was known.
Compounds. The drugs and investigational agents: pidnarulex (CX-5461; NSC782164), APTO-253 (NSC789042), BRACO-19 (NSC847499), peposertib (NSC802822), ceralasertib (NSC780249), elimusertib (NSC800525), camonsertib (NSC841442), AZD-1390 (NSC803789), olaparib (NSC753686), talazoparib (NSC767125), ART-558 (NSC835418), sotorasib (NSC818433), MRTX-1133 (NSC836407), SN-38 (NSC673596), topotecan (NSC609699), etoposide (NSC141540), doxorubicin (NSC123127), gemcitabine (NSC613327), 5-fluorouracil (NSC19893), paclitaxel (NSC125973), vemurafenib (NSC761431), panobinostat (NSC761190), R-306465 (JNJ-16241199; NSC773264), adavosertib (NSC754352), TP-3654 (NSC805149), carboplatin (NSC241240), KSQ-4279 (NSC840948), and staurosporine (NSC755774) were obtained from the National Cancer Institute (NCI) Developmental Therapeutics Program Chemical Repository (34). The FDA-approved anticancer drug set is available from the NCI Developmental Therapeutics Program. […] The stock solutions were prepared in dimethyl sulfoxide (DMSO, Sigma-Aldrich, St. Louis, MO, cat. D2650) at 800-fold the tested concentration and stored at -70 degrees C prior to their use. All drugs and investigational agents were tested over a range starting from a high concentration at or near the clinical Cmax and decreasing in half-log increments. If the clinical Cmax for an agent had not been determined, the highest concentration tested was 10 microM.
2.3 Cell Culture. All cells were maintained in an incubator at 37 degrees C and 5% CO2 with 95% humidity. The PDC lines were cultured according to standard operating procedures established by the NCI PDMR. All PDCs were thawed and cultured in Matrigel-coated flasks prepared with a working solution of 1X Ham's F-12 nutrient mix, without supplementation (Invitrogen, cat. 11765054), 100 U/mL penicillin-streptomycin (Invitrogen, cat. 15140122), and 2.5% Matrigel (Corning Inc., cat. 354248) for the first three passages. The 857933-349-R-J2-PDC line was cultured in 6C/Colon 1B media, which includes advanced DMEM/F-12 (Thermo Fisher Scientific, cat. 12634028), 10 mM HEPES (Thermo Fisher Scientific, cat. 15630080), 1X GlutaMAX supplement (Thermo Fisher Scientific, cat. 35050061), 0.1 mg/mL primocin (InvivoGen, cat. ant-pm-2), 10% defined fetal bovine serum, heat inactivated (HyClone Laboratories Inc., cat. SH30070.03HI), 50% L-WRN conditioned media (ATCC, cat. CRL-3276), 1.25 mM N-Acetyl-L-cysteine (Sigma-Aldrich, cat. A9165), 10 mM nicotinamide (Sigma-Aldrich, cat. N0636), 1X B-27 supplement (Thermo Fisher Scientific, cat. 17504044), 1X N-2 supplement (Thermo Fisher Scientific, cat. 17502048), 10 microM Y-27632 dihydrochloride (Tocris Bioscience, cat. 1254), and 50 ng/mL human EGF recombinant protein (Thermo Fisher Scientific, cat. PHG0311). The 485176-168-R4-J1-PDC line was cultured in Panc media, which includes all 6C/Colon 1B media components plus 100 ng/mL human FGF-10 (Thermo Fisher Scientific, cat. 100-26), 500 nM SB-431542 (Selleckchem, cat. S1067), and gastrin (Tocris, cat. 3006).
[…]

pIC50: −log10 of the molar value. Where “and” joins values, the source holds several entries; their conditions need not be identical. Equal values may be shown once.
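Further: spheroids exposed to the agents for seven days before readout.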
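Wherever viability, T/C is given: percent of vehicle control viability with DMSO wells as 100%.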

Consider `Cc1[nH]c2ccccc2c1CCNCc1ccc(/C=C/C(=O)NO)cc1` + CN(C)c1ccc(Nc2c3ccc(NC(=O)CCN4CCCC4)cc3nc3cc(NC(=O)CCN4CCCC4)ccc23)cc1, for which the pIC50 (usually −log10 of the IC50, conventionally taken in molar units) was 7.10 (curve of first compound, second compound 0.0316 µM); 7.25 (curve of first compound, second compound 0.1 µM); 7.13 (curve of first compound, second compound 0.316 µM); 7.21 (curve of first compound, second compound 1 µM); 7.59 (curve of first compound, second compound 3.16 µM); > 9.00 (curve of first compound, second compound 10 µM). For the same compound, the viability, T/C (in general, the result in the treated group divided by that in the control group, in per cent) is, setting by setting: (second compound 0.0316 µM, first compound 0.000999 µM) 84.5%; (second compound 0.0316 µM, first compound 0.00316 µM) 86%; (second compound 0.0316 µM, first compound 0.00999 µM) 95%; (second compound 0.0316 µM, first compound 0.0316 µM) 69.2%; (second compound 0.0316 µM, first compound 0.0999 µM) 45.9%; (second compound 0.0316 µM, first compound 0.316 µM) 9.48%. The viability, T/C by setting is: (second compound 0.1 µM, first compound 0.000999 µM) 134%; (second compound 0.1 µM, first compound 0.00316 µM) 96.6%; (second compound 0.1 µM, first compound 0.00999 µM) 79.4%; (second compound 0.1 µM, first compound 0.0316 µM) 59.7%; (second compound 0.1 µM, first compound 0.0999 µM) 50.8%; (second compound 0.1 µM, first compound 0.316 µM) 11%. The viability, T/C by setting is: (second compound 0.316 µM, first compound 0.000999 µM) 104%; (second compound 0.316 µM, first compound 0.00316 µM) 99.5%; (second compound 0.316 µM, first compound 0.00999 µM) 91.4%; (second compound 0.316 µM, first compound 0.0316 µM) 69.4%; (second compound 0.316 µM, first compound 0.0999 µM) 43.8%; (second compound 0.316 µM, first compound 0.316 µM) 9.1%. The viability, T/C runs as follows: (second compound 1 µM, first compound 0.000999 µM) 76.7%; (second compound 1 µM, first compound 0.00316 µM) 74.3%; (second compound 1 µM, first compound 0.00999 µM) 58.5%; (second compound 1 µM, first compound 0.0316 µM) 62.1%; (second compound 1 µM, first compound 0.0999 µM) 45.5%; (second compound 1 µM, first compound 0.316 µM) 10.1%. Further, the viability, T/C (second compound 3.16 µM, first compound 0.000999 µM) was 119%; the viability, T/C (second compound 3.16 µM, first compound 0.00316 µM) was 79.2%; the viability, T/C (second compound 3.16 µM, first compound 0.00999 µM) is 62.7%; the viability, T/C (second compound 3.16 µM, first compound 0.0316 µM) is 56.2%; the viability, T/C (second compound 3.16 µM, first compound 0.0999 µM) was 28.5%; the viability, T/C (second compound 3.16 µM, first compound 0.316 µM) is 6.97%. Besides, the viability, T/C by setting is: (second compound 10 µM, first compound 0.000999 µM) 44.3%; (second compound 10 µM, first compound 0.00316 µM) 49.4%; (second compound 10 µM, first compound 0.00999 µM) 23.3%; (second compound 10 µM, first compound 0.0316 µM) 18.3%; (second compound 10 µM, first compound 0.0999 µM) 22.6%; (second compound 10 µM, first compound 0.316 µM) 4.75%.
`Cc1[nH]c2ccc(F)cc2c1-c1nc2c3cccnc3c3ncccc3c2[nH]1`: the viability, T/C by setting is: (compound 0.0316 µM) 99.6% [middle of 8 runs]; (compound 3.16 µM) 30.2% [middle of 8 runs]; (compound 10 µM) 24.5% [middle of 8 runs]. Also, the IC50 (commonly the concentration needed to halve the response being measured) (compound alone, run of 02/20/2024) is 1.81 µM [middle of 4 runs]. In addition, the pIC50 (compound alone, run of 02/26/2024) was 5.95 and 6.02 and 5.48.
Take `Cc1cnc(CNC(=O)c2c(=O)c3ccc(N4CCCN(C)CC4)nc3n3c2sc2ccccc23)cn1`: the viability, T/C is 74.8% [middle of 10 runs] (compound 0.0316 µM); 64.1% [middle of 10 runs] (compound 0.1 µM); 57.7% [middle of 10 runs] (compound 0.316 µM); 46.2% [middle of 10 runs] (compound 1 µM); 9.54% [middle of 10 runs] (compound 3.16 µM); 0.19% [middle of 7 runs] (compound 10 µM).
For `O=c1[nH]cc(F)c(=O)[nH]1`, the viability, T/C is, setting by setting: (compound 0.0316 µM) 88.6% and 164% and 121%; (compound 0.1 µM) 71.2% and 82.5% and 101%; (compound 0.316 µM) 83% and 89.5% and 119%; (compound 1 µM) 61.4% and 63.8% and 109%; (compound 3.16 µM) 63.2% and 95% and 99.5%; (compound 10 µM) 63.7% and 75% and 70.3%. Also, the pIC50 (curve of compound) is < 5.00.
